Test [1] concerns the target p38a/MK2 (Homo sapiens (Human), UniProt P49137+Q16539). As to the kind of experiment: p38a/MK2 biochemical assay: activation of MK2 by p38, FITC-HSP27 peptide phosphorylation (IMAP FP). The settings on record: 10-point 1:3 dilution, 60 pM active p38a, 1 nM inactive MK2, 10 μM ATP, 2 h incubation.
Test [2] addresses p38a/PRAK (Homo sapiens (Human), UniProt Q16539). As to the kind of experiment: p38a/PRAK biochemical assay: activation of PRAK by p38, FITC-HSP27 peptide phosphorylation (IMAP FP). The settings on record: 10-point 1:3 dilution, top dose 300 μM; 60 pM active p38a, 1 nM inactive PRAK, 10 μM ATP, 2 h incubation; read-out: p38a/PRAK Enzyme pIC50 (converted). An outline of the steps: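 GST-tagged MK2 (F46–H400) and PRAK (M1–Q471), expressed in E. coli, activated by p38 and phosphorylate FITC-HSP27 peptide over 2 h with compound; readout by IMAP fluorescence polarisation (ex 485/em 528 nm). Ten-point 1:3 dilutions, top dose 1 μM for MK2 and 300 μM for PRAK. IC50 after vehicle normalisation; selectivity = IC50(PRAK)/IC50(MK2).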

The mark [3] stands for this setting: top dose 1 μM, read-out: p38a/MK2 (1 μM) Enzyme pIC50 (converted).
Setting [4] is: top dose 10 μM, read-out: p38a/MK2 (10 μM) Enzyme pIC50 (converted).

Read-outs that look alike come from different tables or passages of the source.

Chain of p38a/PRAK (Q16539 whole entry): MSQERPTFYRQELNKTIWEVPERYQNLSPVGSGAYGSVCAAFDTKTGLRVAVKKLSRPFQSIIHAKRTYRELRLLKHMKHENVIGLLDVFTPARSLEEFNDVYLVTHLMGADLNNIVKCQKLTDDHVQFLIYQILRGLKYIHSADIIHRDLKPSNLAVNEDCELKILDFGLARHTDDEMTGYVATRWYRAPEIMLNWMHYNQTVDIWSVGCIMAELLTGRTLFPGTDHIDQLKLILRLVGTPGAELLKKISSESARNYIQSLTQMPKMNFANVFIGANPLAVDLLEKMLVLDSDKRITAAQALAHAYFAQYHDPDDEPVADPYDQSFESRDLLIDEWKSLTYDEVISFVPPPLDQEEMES
Chain of p38a/MK2 (P49137 46-400): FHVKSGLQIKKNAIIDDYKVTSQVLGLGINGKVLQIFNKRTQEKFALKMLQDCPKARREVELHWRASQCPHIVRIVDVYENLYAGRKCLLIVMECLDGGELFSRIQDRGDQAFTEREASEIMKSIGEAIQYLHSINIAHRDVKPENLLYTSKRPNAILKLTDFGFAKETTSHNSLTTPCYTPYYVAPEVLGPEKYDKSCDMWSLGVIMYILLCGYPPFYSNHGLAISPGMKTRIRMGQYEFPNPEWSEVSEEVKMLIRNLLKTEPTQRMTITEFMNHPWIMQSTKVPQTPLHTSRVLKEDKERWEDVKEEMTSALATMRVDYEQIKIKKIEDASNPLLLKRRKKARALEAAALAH
Chain of p38a/MK2 (Q16539 whole entry): as the sequence (Q16539 whole entry) above

Turning to `Cc1cnc(-c2cccc([C@@H](O)CO)n2)cc1-n1c(C)cc(OCc2ncc(F)cc2F)c(Cl)c1=O` (single isomer, unassigned) [Example 34A, rel-3-chloro-4-[(3,5-difluoropyridin-2-yl)methoxy]-2′-[6-(1,2-dihydroxyethyl)pyridin-2-yl]-5′,6-dimethyl-[1,4′-bipyridin]-2-one], the IC50 is 0.02 µM in test [1] (setting [3]) and 10 µM in test [2].
Consider `Cc1cnc(-c2nc(C(C)(C)O)cs2)cc1-n1c(C)cc(OCc2ncc(F)cc2F)c(Cl)c1=O` (atropisomer, axis not shown) [Example 2, 3-chloro-4-[(3,5-difluoropyridin-2-yl)methoxy]-2′-[4-(2-hydroxypropan-2-yl)-1,3-thiazol-2-yl]-5′,6-dimethyl-[1,4′-bipyridin]-2-one], for which the “p38a/MK2 (10 μM) Enzyme pIC50” value in test [1] (top dose 10 μM) was determined as 7.5. Further, the IC50 in test [2] is 3.98 µM.
`Cc1cc(OCc2ncc(F)cc2F)c(Cl)c(=O)n1-c1cc(-c2ccnc(C(C)(C)O)n2)ncc1C1CC1` (single isomer, unassigned) [Example 40B, rel-3-chloro-5′-cyclopropyl-4-[(3,5-difluoropyridin-2-yl)methoxy]-2′-[2-(2-hydroxypropan-2-yl)pyrimidin-4-yl]-6-methyl-[1,4′-bipyridin]-2-one]: the values for the IC50 in test [1] (setting [3]) and in test [2] were > 1 µM and > 316 µM, respectively.
With `Cc1cnc(-c2ccnc(C(C)(C)O)n2)c(F)c1-n1c(C)cc(OCc2ncc(F)cc2F)c(Cl)c1=O` (single isomer, unassigned) [Example 53A, rel-3-chloro-4-[(3,5-difluoropyridin-2-yl)methoxy]-3′-fluoro-2′-[2-(2-hydroxypropan-2-yl)pyrimidin-4-yl]-5′,6-dimethyl-[1,4′-bipyridin]-2-one], the IC50 in test [1] (setting [3]) is > 1 µM; in test [2], > 316 µM.
Turning to `Cc1cnc(-c2ccnc(C3(O)CCOCC3)n2)cc1-n1c(C)cc(OCc2ncc(F)cc2F)c(Cl)c1=O` (single isomer, unassigned) [Example 39B, rel-3-chloro-4-((3,5-difluoropyridin-2-yl)methoxy)-2′-(2-(4-hydroxytetrahydro-2H-pyran-4-yl)pyrimidin-4-yl)-5′,6-dimethyl-2H-[1,4′-bipyridin]-2-one], the IC50 is > 1 µM in test [1] (setting [3]) and > 316 µM in test [2].
Turning to `Cc1cc(OCc2ncc(F)cc2F)c(Cl)c(=O)n1-c1cc(-c2ccnc(C(C)(C)O)n2)ncc1C1CC1` (single isomer, unassigned) [Example 40A, rel-3-chloro-5′-cyclopropyl-4-[(3,5-difluoropyridin-2-yl)methoxy]-2′-[2-(2-hydroxypropan-2-yl)pyrimidin-4-yl]-6-methyl-[1,4′-bipyridin]-2-one], the IC50 is 0.126 µM in test [1] (setting [3]) and 15.8 µM in test [2].
The like results for `Cc1cnc(-n2ccc(CC(C)(C)O)n2)cc1-n1c(C)cc(OCc2ncc(F)cc2F)c(Cl)c1=O` (single isomer, unassigned) [Example 46A, rel-3-chloro-4-[(3,5-difluoropyridin-2-yl)methoxy]-2′-[3-(2-hydroxy-2-methylpropyl)pyrazol-1-yl]-5′,6-dimethyl-[1,4′-bipyridin]-2-one] were, in that order, 0.0158 µM and 2.51 µM.
The like results for `Cc1cnc(-c2nc(C(C)(C)O)n(C)n2)cc1-n1c(C)cc(OCc2ncc(F)cc2F)c(Cl)c1=O` (single isomer, unassigned) [Example 42A, rel-3-chloro-4-[(3,5-difluoropyridin-2-yl)methoxy]-2′-[5-(2-hydroxypropan-2-yl)-1-methyl-1,2,4-triazol-3-yl]-5′,6-dimethyl-[1,4′-bipyridin]-2-one] were, in that order, 0.501 µM and 6.31 µM.
For the compound `Cc1cnc(-c2ccn(C(C)(C)CO)n2)cc1-n1c(C)cc(OCc2ncc(F)cc2F)c(Cl)c1=O` (single isomer, unassigned) [Example 25B, rel-3-chloro-4-[(3,5-difluoropyridin-2-yl)methoxy]-2′-[1-(1-hydroxy-2-methylpropan-2-yl)pyrazol-3-yl]-5′,6-dimethyl-[1,4′-bipyridin]-2-one], the IC50 in test [1] (setting [4]) is 3.16 µM; in test [2], > 316 µM.
As to `Cc1cnc(-c2cncc(C(C)(C)O)n2)cc1-n1c(C)cc(OCc2ncc(F)cc2F)c(Cl)c1=O` (single isomer, unassigned) [Example 51A, rel-3-chloro-4-[(3,5-difluoropyridin-2-yl)methoxy]-2′-[6-(2-hydroxypropan-2-yl)pyrazin-2-yl]-5′,6-dimethyl-[1,4′-bipyridin]-2-one], the IC50 was 0.0794 µM in test [1] (setting [3]) and 5.01 µM in test [2].
With `Cc1cnc(-c2ccnc(C3(O)CC3)n2)cc1-n1c(C)cc(OCc2ncc(F)cc2F)c(Cl)c1=O` (atropisomer, axis not shown) [Example 3, 3-chloro-4-[(3,5-difluoropyridin-2-yl)methoxy]-2′-[2-(1-hydroxycyclopropyl)pyrimidin-4-yl]-5′,6-dimethyl-[1,4′-bipyridin]-2-one], the IC50 in test [1] (setting [4]) was 0.02 µM; in test [2], 5.01 µM.
For the compound `Cc1cnc(-c2ccnc(CC3(O)CC3)n2)cc1-n1c(C)cc(OCc2ncc(F)cc2F)c(Cl)c1=O` (single isomer, unassigned) [Example 48B, rel-3-chloro-4-[(3,5-difluoropyridin-2-yl)methoxy]-2′-{2-[(1-hydroxycyclopropyl)methyl]pyrimidin-4-yl}-5′,6-dimethyl-[1,4′-bipyridin]-2-one], the IC50 in test [1] (setting [3]) is > 1 µM; in test [2], > 316 µM.
The like results for `Cc1cnc(-c2ccnc(C(C)(C)O)c2F)cc1-n1c(C)cc(OCc2ncc(F)cc2F)c(Cl)c1=O` (atropisomer, axis not shown) [Example 56A, 3-chloro-4-[(3,5-difluoropyridin-2-yl)methoxy]-1-[3′-fluoro-2′-(2-hydroxypropan-2-yl)-5-methyl-[2,4′-bipyridin]-4-yl]-6-methylpyridin-2-one] were, in that order, 0.002 µM and 1.58 µM.
For `Cc1cnc(-c2ccnc(C3(O)CCC3)n2)cc1-n1c(C)cc(OCc2ncc(F)cc2F)c(Cl)c1=O` (single isomer, unassigned) [Example 41B, rel-3-chloro-4-[(3,5-difluoropyridin-2-yl)methoxy]-2′-[2-(1-hydroxycyclobutyl)pyrimidin-4-yl]-5′,6-dimethyl-[1,4′-bipyridin]-2-one], the IC50 in test [1] (setting [3]) is > 1 µM; in test [2], > 316 µM.
As for `Cc1cnc(-c2ccn(C(C)(C)CO)n2)cc1-n1c(C)cc(OCc2ncc(F)cc2F)c(Cl)c1=O` (single isomer, unassigned) [Example 25A, rel-3-chloro-4-[(3,5-difluoropyridin-2-yl)methoxy]-2′-[1-(1-hydroxy-2-methylpropan-2-yl)pyrazol-3-yl]-5′,6-dimethyl-[1,4′-bipyridin]-2-one], the IC50 was 0.0316 µM in test [1] (setting [4]) and 3.16 µM in test [2].
With `Cc1cnc(-c2cccc(C(C)(C)O)[n+]2[O-])c(F)c1-n1c(C)cc(OCc2ncc(F)cc2F)c(Cl)c1=O` (single isomer, unassigned) [Example 62A, rel-3-chloro-4-((3,5-difluoropyridin-2-yl)methoxy)-3′-fluoro-6″-(2-hydroxypropan-2-yl)-5′,6-dimethyl-2-oxo-2H-[1,4′:2′,2″-terpyridine] 1″-oxide], the IC50 in test [1] (setting [3]) is 0.00158 µM; in test [2] it was 0.794 µM.
In the case of `[2H]C([2H])(Oc1cc(C)n(-c2cc(-c3ccnc(C(C)(C)O)c3F)ncc2C)c(=O)c1Cl)c1ncc(F)cc1F` (single isomer, unassigned) [Example 64A, rel-3-chloro-4-[(3,5-difluoropyridin-2-yl)(2H2)methoxy]-1-[3′-fluoro-2′-(2-hydroxypropan-2-yl)-5-methyl-[2,4′-bipyridin]-4-yl]-6-methylpyridin-2-one], the IC50 was 0.002 µM in test [1] (setting [3]) and 2 µM in test [2].
With `Cc1cnc(-c2ccc3c(n2)[C@H](O)CC3)cc1-n1c(C)cc(OCc2ncc(F)cc2F)c(Cl)c1=O` (single isomer, unassigned) [Example 18A], the IC50 was 0.158 µM in test [1] (setting [4]) and 25.1 µM in test [2].
As to `Cc1cnc(-c2cccc([C@@](C)(O)CO)n2)cc1-n1c(C)cc(OCc2ncc(F)cc2F)c(Cl)c1=O` (single isomer, unassigned) [Example 36B, rel-3-chloro-4-[(3,5-difluoropyridin-2-yl)methoxy]-2′-[6-(1,2-dihydroxypropan-2-yl)pyridin-2-yl]-5′,6-dimethyl-[1,4′-bipyridin]-2-one], the values for the IC50 in test [1] (setting [3]) and in test [2] were 0.00631 µM and 15.8 µM, respectively.
For `Cc1cnc(-c2ccnc(N(C)CCO)n2)cc1-n1c(C)cc(OCc2ncc(F)cc2F)c(Cl)c1=O` (single isomer, unassigned) [Example 43B, rel-3-chloro-4-[(3,5-difluoropyridin-2-yl)methoxy]-2′-{2-[(2-hydroxyethyl)(methyl)amino]pyrimidin-4-yl}-5′,6-dimethyl-[1,4′-bipyridin]-2-one], the IC50 was > 1 µM in test [1] (setting [3]) and > 316 µM in test [2].
Turning to `Cc1cnc(-c2ccnc(C(O)C3CC3)n2)cc1-n1c(C)cc(OCc2ncc(F)cc2F)c(Cl)c1=O` (single isomer, unassigned) [Example 35A, rel-3-chloro-2′-{2-[cyclopropyl(hydroxy)methyl]pyrimidin-4-yl}-4-[(3,5-difluoropyridin-2-yl)methoxy]-5′,6-dimethyl-[1,4′-bipyridin]-2-one], the IC50 in test [1] (setting [3]) is 0.0501 µM; in test [2], 10 µM.

These data come from patent US11680056B2, “MK2 inhibitors and uses thereof” (Xinthera, Inc., priority 2021, dated 2023).
